According to patent publication US10654872B1, “Polymorphs of dolutegravir and salts thereof” (Laurus Labs Limited, priority 2015, dated 2020):

What was measured:
Type in all cases: physicochemical
[1] = Aqueous solubility at different pH buffers, UV quantification
[2] = Hygroscopic study at 85% relative humidity; conditions: room temperature, one week (24, 48, 72, 168 hours)
Procedure: Dolutegravir sodium Form-L9 was exposed to 85% relative humidity at room temperature for one week and was analyzed by PXRD at different time intervals such as 24 hours, 48 hours, 72 hours and 168 hours. […] The overlaid PXRD pattern of dolutegravir sodium Form-L9 subjected to hygroscopic study at 85% RH is represented as Figure-25.

[3] = Thermal stability of Form-L9 in oven at 60° C. and 100° C. (PXRD, DSC); conditions: for Form after heating, DSC / Form after heating, PXRD: 24 hrs
Procedure: Dolutegravir sodium Form-L9 was kept in an oven at 60° C. and 100° C. for 24 hrs.

[4] = Stability data of dolutegravir sodium Form-L9 stored at 40±2° C./75±5% RH
Procedure: Dolutegravir sodium Form-L9 was packed in a Low density polyethylene (LDPE) bag with a strip seal, which is again kept in a second low density polyethylene bag with strip seal. The LDPE bag is kept in a high density polyethylene (HDPE) container and well closed and loaded for stability chamber. […] The purity of dolutegravir sodium was analysed using high performance liquid chromatography (“HPLC”) with the conditions is tabulated below: [table]

## C[C@@H]1CCO[C@H]2Cn3cc(C(=O)NCc4ccc(F)cc4F)c(=O)c(O)c3C(=O)N12 [Form-L9, dolutegravir sodium]
[1]
  Solubility profile versus dolutegravir sodium anhydrous form: comparable
[2]
  Polymorphic nature after hygroscopic study: same polymorphic nature retained
[3]; 60° C. and 100° C. for 24 hours
  Stability at elevated temperatures: stable even at elevated temperatures
[3]; 60° C.
  Form after heating, DSC: Form-L9
  Form after heating, PXRD: Form-L9
[3]; 100° C.
  Form after heating, DSC: Form-L9
  Form after heating, PXRD: Form-L9
[3]; oven at 60° C. and 100° C. for 24 hrs
  Polymorphic nature after thermal study (PXRD and DSC): same polymorphic nature retained
[4]; 1 month
  Des fluoro dolutegravir: 0.08 % w/w
  PXRD (polymorphic form): Form-L9
  Purity by HPLC: 99.9 % w/w
  Water content: 1.9 % w/w
[4]; 2 month
  Des fluoro dolutegravir: 0.09 % w/w
  PXRD (polymorphic form): Form-L9
  Purity by HPLC: 99.9 % w/w
  Water content: 2 % w/w
[4]; 3 month
  Des fluoro dolutegravir: 0.10 % w/w
  PXRD (polymorphic form): Form-L9
  Purity by HPLC: 99.8 % w/w
  Water content: 2.3 % w/w
[4]; Initial
  Des fluoro dolutegravir: 0.09 % w/w
  PXRD (polymorphic form): Form-L9
  Purity by HPLC: 99.8 % w/w
  Water content: 2.2 % w/w
[4]; at least up to three months, LDPE bags in HDPE container
  Polymorphic and chemical stability on storage: retained the same polymorphic and chemical identity
